Laboratory results as given in ChEMBL document CHEMBL1201861, “Genomics of Drug Sensitity in Cancer screening data, Wellcome Trust Sanger Institute”.
pIC50: −log10 of the molar value.

Assays:
[1] = tested on: EPLC-272H; experiment: cells; format: functional, cell-based; conditions: Homo sapiens
Description: SANGER: Inhibition of human EPLC-272H cell growth in a cell viability assay.

[2] = tested on: EW-22; experiment: cells; format: functional, cell-based; conditions: Homo sapiens;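 also: growth inhibition of the EW-22 cell line, measured with a cell viability readout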
Description: SANGER: Inhibition of human EW-22 cell growth in a cell viability assay.

[3] = tested on: G-361; experiment: cells; format: functional, cell-based, Homo sapiens; conditions: Homo sapiens, G-361
[4] = tested on: HT55; experiment: cells; format: functional, cell-based, Homo sapiens; conditions: Homo sapiens, HT55;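 also: cell viability readout measuring growth inhibition of human HT55 cells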
Description: SANGER: Inhibition of human HT55 cell growth in a cell viability assay.

[5] = tested on: HuO9; experiment: cells; format: functional, cell-based, Homo sapiens; conditions: Homo sapiens, HuO9;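 also: growth inhibition of HuO9 cells, read out with a cell viability assay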
Description: SANGER: Inhibition of human HuO9 cell growth in a cell viability assay.

[6] = tested on: Kasumi 1; experiment: cells; format: functional, cell-based; conditions: Homo sapiens;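 also: growth inhibition of human Kasumi-1 cells, read out by a cell viability assay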
Description: SANGER: Inhibition of human KASUMI-1 cell growth in a cell viability assay.

[7] = tested on: MEL-JUSO; experiment: cells; format: functional, cell-based, Homo sapiens; conditions: Homo sapiens, MEL-JUSO;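 also: growth inhibition of human MEL-JUSO cells, read out with a cell viability assay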
Description: SANGER: Inhibition of human MEL-JUSO cell growth in a cell viability assay.

[8] = tested on: NCI-H1703; experiment: cells; format: functional, cell-based, Homo sapiens; conditions: Homo sapiens, NCI-H1703;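 also: growth inhibition of NCI-H1703 cells, read out via a cell viability assay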
Description: SANGER: Inhibition of human NCI-H1703 cell growth in a cell viability assay.

[9] = tested on: NCI-H2291; experiment: cells; format: functional, cell-based; conditions: Homo sapiens
Description: SANGER: Inhibition of human NCI-H2291 cell growth in a cell viability assay.

[10] = tested on: NCI-H630; experiment: cells; format: functional, cell-based, Homo sapiens; conditions: Homo sapiens, NCI-H630;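 also: growth inhibition of NCI-H630 cells, read out with a cell viability assay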
Description: SANGER: Inhibition of human NCI-H630 cell growth in a cell viability assay.

[11] = tested on: RH-18; experiment: cells; format: functional, cell-based; conditions: Homo sapiens, Rh18;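 also: growth inhibition of human RH-18 cells, read out with a cell viability assay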
Description: SANGER: Inhibition of human RH-18 cell growth in a cell viability assay.

[12] = tested on: SW 1116; experiment: cells; format: functional, cell-based; conditions: Homo sapiens;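 also: growth inhibition of SW1116 cells, read out with a cell viability assay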
Description: SANGER: Inhibition of human SW1116 cell growth in a cell viability assay.

[13] = tested on: 23132-87; experiment: cells; format: functional, cell-based, Homo sapiens; conditions: Homo sapiens
Description: SANGER: Inhibition of human 23132-87 cell growth in a cell viability assay.

[14] = tested on: A549; experiment: cells; format: functional, cell-based; conditions: Homo sapiens;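 also: growth inhibition of A549 cells, read out with a cell viability assay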
Description: SANGER: Inhibition of human A549 cell growth in a cell viability assay.

[15] = tested on: YH-13; experiment: cells; format: functional, cell-based; conditions: Homo sapiens;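 also: cell viability readout of growth suppression in the human YH-13 cell line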
Description: SANGER: Inhibition of human YH-13 cell growth in a cell viability assay.

[16] = tested on: COR-L279; experiment: SANGER: Inhibition of human COR-L279 cell growth in a cell viability assay.; format: functional, cell-based
[17] = tested on: EB-3; experiment: cells; format: functional, cell-based; conditions: Homo sapiens;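 also: human EB-3 cells, growth inhibition read out via a cell viability assay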
Description: SANGER: Inhibition of human EB-3 cell growth in a cell viability assay.

[18] = tested on: EVSA-T; experiment: cells; format: functional, cell-based, Homo sapiens; conditions: Homo sapiens, EVSA-T;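 also: growth inhibition of EVSA-T cells, read out with a cell viability assay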
Description: SANGER: Inhibition of human EVSA-T cell growth in a cell viability assay.

[19] = tested on: GDM-1; experiment: cells; format: functional, cell-based; conditions: Homo sapiens;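 also: cell viability readout used to measure growth inhibition of human GDM-1 cells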
Description: SANGER: Inhibition of human GDM-1 cell growth in a cell viability assay.

[20] = tested on: HCC1599; experiment: cells; format: functional, cell-based; conditions: Homo sapiens;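 also: growth inhibition of HCC1599 cells, read out in a cell viability assay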
Description: SANGER: Inhibition of human HCC1599 cell growth in a cell viability assay.

[21] = tested on: IM-9; experiment: SANGER: Inhibition of human IM-9 cell growth in a cell viability assay.; format: functional, cell-based
[22] = tested on: IST-SL2; experiment: cells; format: functional, cell-based; conditions: Homo sapiens;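 also: growth inhibition of human IST-SL2 cells, read out by a cell viability assay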
Description: SANGER: Inhibition of human IST-SL2 cell growth in a cell viability assay.

[23] = tested on: JIYOYE; experiment: cells; format: functional, cell-based; conditions: Homo sapiens
Description: SANGER: Inhibition of human JiyoyeP-2003 cell growth in a cell viability assay.

[24] = tested on: K052; experiment: cells; format: functional, cell-based; conditions: Homo sapiens;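 also: Read-out from a cell viability assay, IC50 reflecting suppression of K052 cell growth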
Description: SANGER: Inhibition of human K052 cell growth in a cell viability assay.

[25] = tested on: KARPAS-422; experiment: cells; format: functional, cell-based; conditions: Homo sapiens
Description: SANGER: Inhibition of human KARPAS-422 cell growth in a cell viability assay.

[26] = tested on: KMS-12-PE; experiment: cells; format: functional, cell-based; conditions: Homo sapiens;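 also: growth inhibition of human KMS-12-PE cells, measured with a cell viability assay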
Description: SANGER: Inhibition of human KMS-12-PE cell growth in a cell viability assay.

[27] = tested on: L-540; experiment: cells; format: functional, cell-based; conditions: Homo sapiens;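 also: growth inhibition of the human L-540 cell line, read out with a viability assay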
Description: SANGER: Inhibition of human L-540 cell growth in a cell viability assay.

[28] = tested on: LOUCY; experiment: cells; format: functional, cell-based; conditions: Homo sapiens;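 also: growth inhibition of human LOUCY cells, read out with a cell viability assay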
Description: SANGER: Inhibition of human LOUCY cell growth in a cell viability assay.

[29] = tested on: LU-165; experiment: cells; format: functional, cell-based; conditions: Homo sapiens
Description: SANGER: Inhibition of human LU-165 cell growth in a cell viability assay.

[30] = tested on: MC-CAR; experiment: cells; format: functional, cell-based; conditions: Homo sapiens;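 also: growth inhibition of the human MC-CAR cell line, read out by a cell viability assay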
Description: SANGER: Inhibition of human MC-CAR cell growth in a cell viability assay.

[31] = tested on: MDA-MB-134-VI; experiment: cells; format: functional, cell-based; conditions: Homo sapiens
Description: SANGER: Inhibition of human MDA-MB-134-VI cell growth in a cell viability assay.

[32] = tested on: MRK-nu-1; experiment: cells; format: functional, cell-based; conditions: Homo sapiens;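 also: cell viability assay measuring growth suppression of human MRK-nu-1 cells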
Description: SANGER: Inhibition of human MRK-nu-1 cell growth in a cell viability assay.

[33] = tested on: NCI-H1436; experiment: cells; format: functional, cell-based; conditions: Homo sapiens;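 also: growth suppression of human NCI-H1436 cells, determined with a cell viability readout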
Description: SANGER: Inhibition of human NCI-H1436 cell growth in a cell viability assay.

[34] = tested on: NCI-H1522; experiment: cells; format: functional, cell-based; conditions: Homo sapiens;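 also: growth inhibition of NCI-H1522 cells, read out with a cell viability assay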
Description: SANGER: Inhibition of human NCI-H1522 cell growth in a cell viability assay.

[35] = tested on: NCI-H1694; experiment: cells; format: functional, cell-based; conditions: Homo sapiens;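 also: cell viability assay measuring inhibition of growth in human NCI-H1694 cells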
Description: SANGER: Inhibition of human NCI-H1694 cell growth in a cell viability assay.

[36] = tested on: NCI-H1882; experiment: cells; format: functional, cell-based; conditions: Homo sapiens;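 also: growth inhibition of the cell line, determined with a viability assay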
Description: SANGER: Inhibition of human NCI-H1882 cell growth in a cell viability assay.

[37] = tested on: NCI-H2141; experiment: cells; format: functional, cell-based; conditions: Homo sapiens;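 also: growth inhibition of human NCI-H2141 cells, read out with a cell viability assay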
Description: SANGER: Inhibition of human NCI-H2141 cell growth in a cell viability assay.

[38] = tested on: NCI-H460; experiment: cells; format: functional, cell-based, Homo sapiens; conditions: Homo sapiens, NCI-H460;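 also: cell viability assay scoring growth inhibition of human NCI-H460 cells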
Description: SANGER: Inhibition of human NCI-H460 cell growth in a cell viability assay.

[39] = tested on: NCI-H524; experiment: cells; format: functional, cell-based; conditions: Homo sapiens;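 also: growth inhibition of human NCI-H524 cells, read out through a cell viability assay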
Description: SANGER: Inhibition of human NCI-H524 cell growth in a cell viability assay.

[40] = tested on: NCI-H64; experiment: cells; format: functional, cell-based; conditions: Homo sapiens;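 also: growth inhibition of NCI-H64 cells, read out with a cell viability assay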
Description: SANGER: Inhibition of human NCI-H64 cell growth in a cell viability assay.

[41] = tested on: NCI-H889; experiment: cells; format: functional, cell-based; conditions: Homo sapiens;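 also: cell growth inhibition of the cell line, read out with a viability assay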
Description: SANGER: Inhibition of human NCI-H889 cell growth in a cell viability assay.

[42] = tested on: SNU-16; experiment: cells; format: functional, cell-based; conditions: Homo sapiens;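 also: growth inhibition of human SNU-16 cells, determined with a cell viability readout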
Description: SANGER: Inhibition of human NCI-SNU-16 cell growth in a cell viability assay.

[43] = tested on: Raji; experiment: cells; format: functional, cell-based; conditions: Homo sapiens;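 also: cell viability assay measuring inhibition of Raji cell growth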
Description: SANGER: Inhibition of human Raji cell growth in a cell viability assay.

[44] = tested on: SCLC-21H; experiment: cells; format: functional, cell-based; conditions: Homo sapiens;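 also: growth inhibition of cultured human SCLC-21H cells, read out with a cell viability assay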
Description: SANGER: Inhibition of human SCLC-21H cell growth in a cell viability assay.

[45] = tested on: SK-MM-2; experiment: cells; format: functional, cell-based; conditions: Homo sapiens;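 also: growth inhibition of human SK-MM-2 cells, read out with a cell viability assay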
Description: SANGER: Inhibition of human SK-MM-2 cell growth in a cell viability assay.

[46] = tested on: SNU-C1; experiment: cells; format: functional, cell-based; conditions: Homo sapiens;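 also: growth inhibition of SNU-C1 human cells, read out by a cell viability assay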
Description: SANGER: Inhibition of human SNU-C1 cell growth in a cell viability assay.

[47] = tested on: ST486; experiment: SANGER: Inhibition of human ST486 cell growth in a cell viability assay.; format: functional, cell-based
[48] = tested on: SU-DHL-1; experiment: SANGER: Inhibition of human SU-DHL-1 cell growth in a cell viability assay.; format: functional, cell-based
[49] = tested on: SUP-T1; experiment: cells; format: functional, cell-based; conditions: Homo sapiens;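 also: growth inhibition of human SUP-T1 cells, read out as cell viability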
Description: SANGER: Inhibition of human SUP-T1 cell growth in a cell viability assay.

[50] = tested on: BC-3; experiment: cells; format: functional, cell-based; conditions: Homo sapiens;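 also: cell viability assay measuring growth inhibition of human BC-3 cells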
Description: SANGER: Inhibition of human BC-3 cell growth in a cell viability assay.

[51] = tested on: BL-41; experiment: cells; format: functional, cell-based; conditions: Homo sapiens;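 also: growth inhibition of human BL-41 cells, read out with a cell viability assay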
Description: SANGER: Inhibition of human BL-41 cell growth in a cell viability assay.

[52] = tested on: BL-70; experiment: SANGER: Inhibition of human BL-70 cell growth in a cell viability assay.; format: functional, cell-based
[53] = tested on: CA46; experiment: cells; format: functional, cell-based; conditions: Homo sapiens;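 also: growth inhibition of human CA46 cells, read out by a cell viability assay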
Description: SANGER: Inhibition of human CA46 cell growth in a cell viability assay.

[54] = tested on: CAL-148; experiment: cells; format: functional, cell-based; conditions: Homo sapiens
Description: SANGER: Inhibition of human CAL-148 cell growth in a cell viability assay.

[55] = tested on: TE-15; experiment: cells; format: functional, cell-based; conditions: Homo sapiens;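 also: cell viability readout of growth inhibition in TE-15 cells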
Description: SANGER: Inhibition of human TE-15 cell growth in a cell viability assay.

[56] = tested on: UACC-812; experiment: cells; format: functional, cell-based; conditions: Homo sapiens
Description: SANGER: Inhibition of human UACC-812 cell growth in a cell viability assay.

[57] = tested on: WSU-NHL; experiment: cells; format: functional, cell-based; conditions: Homo sapiens;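 also: growth inhibition of human WSU-NHL cells, read out with a cell viability assay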
Description: SANGER: Inhibition of human WSU-NHL cell growth in a cell viability assay.

[58] = tested on: YT; experiment: cells; format: functional, cell-based; conditions: Homo sapiens
Description: SANGER: Inhibition of human YT cell growth in a cell viability assay.

[59] = tested on: CESS; experiment: SANGER: Inhibition of human CESS cell growth in a cell viability assay.; format: functional, cell-based
[60] = tested on: CMK; experiment: cells; format: functional, cell-based; conditions: Homo sapiens;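 also: growth inhibition of CMK cells, read out as cell viability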
Description: SANGER: Inhibition of human CMK cell growth in a cell viability assay.

Question: With `CC(=O)O[C@@]12CO[C@@H]1C[C@H](O)[C@@]1(C)C(=O)[C@H](O)C3=C(C)[C@@H](OC(=O)[C@H](O)[C@@H](NC(=O)OC(C)(C)C)c4ccccc4)C[C@@](O)([C@@H](OC(=O)c4ccccc4)[C@H]21)C3(C)C` [DOCETAXEL] as the molecule, how does the pIC50 [1] read?
Answer: 8.96

Question: What about the pIC50 [2] of the same molecule?
Answer: < 8.00

Question: And the pIC50 [3]?
Answer: < 8.00

Question: And the pIC50 [4]?
Answer: < 8.00

Question: What about the pIC50 [5] of the same molecule?
Answer: 8.46

Question: And the pIC50 [6]?
Answer: 8.29

Question: And the pIC50 [7]?
Answer: 8.19

Question: And the pIC50 [8]?
Answer: 8.80

Question: And the pIC50 [9]?
Answer: < 8.00

Question: And the pIC50 [10]?
Answer: < 8.00

Question: And the pIC50 [11]?
Answer: < 8.00

Question: What about the pIC50 [12] of the same molecule?
Answer: < 8.00

Question: And the pIC50 [13]?
Answer: 8.81

Question: What about the pIC50 [14] of the same molecule?
Answer: 9.05

Question: And the pIC50 [15]?
Answer: 9.10

Question: Which results are given for `Cc1cnc(-c2cnc(NCCNc3ccc(C#N)cn3)nc2-c2ccc(Cl)cc2Cl)[nH]1` [LADUVIGLUSIB]?
Answer: pIC50 [16]: < 5.59; pIC50 [17]: < 5.59; pIC50 [18]: < 5.59; pIC50 [3]: < 5.59; pIC50 [19]: < 5.59; pIC50 [20]: < 5.59; pIC50 [4]: < 5.59; pIC50 [5]: < 5.59; pIC50 [21]: < 5.59; pIC50 [22]: < 5.59; pIC50 [23]: < 5.59; pIC50 [24]: < 5.59; pIC50 [25]: < 5.59; pIC50 [6]: < 5.59; pIC50 [26]: < 5.59; pIC50 [27]: < 5.59; pIC50 [28]: < 5.59; pIC50 [29]: < 5.59; pIC50 [30]: < 5.59; pIC50 [31]: < 5.59; pIC50 [7]: < 5.59; pIC50 [32]: < 5.59; pIC50 [33]: < 5.59; pIC50 [34]: < 5.59; pIC50 [35]: < 5.59; pIC50 [8]: < 5.59; pIC50 [36]: < 5.59; pIC50 [37]: < 5.59; pIC50 [38]: < 5.59; pIC50 [39]: < 5.59; pIC50 [10]: < 5.59; pIC50 [40]: < 5.59; pIC50 [41]: < 5.59; pIC50 [42]: < 5.59; pIC50 [43]: < 5.59; pIC50 [44]: < 5.59; pIC50 [45]: < 5.59; pIC50 [46]: < 5.59; pIC50 [47]: < 5.59; pIC50 [48]: < 5.59; pIC50 [49]: < 5.59; pIC50 [13]: < 5.59; pIC50 [50]: < 5.59; pIC50 [51]: < 5.59; pIC50 [52]: < 5.59; pIC50 [53]: < 5.59; pIC50 [54]: < 5.59; pIC50 [55]: < 5.59; pIC50 [56]: < 5.59; pIC50 [57]: < 5.59; pIC50 [58]: < 5.59; pIC50 [59]: < 5.59; pIC50 [60]: < 5.59

Question: How did the pIC50 [1] turn out when `CN(Cc1cnc2nc(N)nc(N)c2n1)c1ccc(C(=O)N[C@@H](CCC(=O)O)C(=O)O)cc1` [METHOTREXATE] was run?
Answer: < 6.70

Question: And the pIC50 [2]?
Answer: < 6.70

Question: What about the pIC50 [4] of the same molecule?
Answer: < 6.70

Question: What about the pIC50 [5] of the same molecule?
Answer: < 6.70

Question: What about the pIC50 [7] of the same molecule?
Answer: < 6.70

Question: What about the pIC50 [8] of the same molecule?
Answer: < 6.70

Question: What about the pIC50 [9] of the same molecule?
Answer: < 6.70

Question: And the pIC50 [10]?
Answer: < 6.70

Question: And the pIC50 [11]?
Answer: < 6.70

Question: And the pIC50 [12]?
Answer: < 6.70

Question: And the pIC50 [14]?
Answer: < 6.70

Question: And the pIC50 [15]?
Answer: < 6.70
